Measurements taken from PMC6992764 (Nature Communications, 2020).

What was measured:
B16 tumor cells [1] = tested on: B16 tumor cells
B16 tumor cells [2] = test: B16 tumor cell growth (WST-1 assay); type: cell-based; conditions: B16, 48 h
Procedure: (§1) To evaluate the effects of compounds on cell growth, cells were incubated with inhibitors for 48 h, then WST-1 (Dojindo) was added to the culture for the final 30 min. An Envision instrument (PerkinElmer) was used to measure the absorbance of each well at 450 nm versus a 650-nm reference to detect the amount of formazan produced from WST-1 by mitochondrial dehydrogenases in viable cells.

LLC tumor cells [3] = test: LLC tumor cell growth (WST-1 assay); type: cell-based; conditions: 48 h
Procedure: as §1

LLC tumor cells [4] = tested on: LLC tumor cells
[5] = target: T1, Full-length FROUNT protein (Homo sapiens, UniProt Q9BW27); test: Surface plasmon resonance binding to FROUNT; conditions: SPR, concentration-dependent
T1 construct: made in house
T1 sequence (Q9BW27 1-656): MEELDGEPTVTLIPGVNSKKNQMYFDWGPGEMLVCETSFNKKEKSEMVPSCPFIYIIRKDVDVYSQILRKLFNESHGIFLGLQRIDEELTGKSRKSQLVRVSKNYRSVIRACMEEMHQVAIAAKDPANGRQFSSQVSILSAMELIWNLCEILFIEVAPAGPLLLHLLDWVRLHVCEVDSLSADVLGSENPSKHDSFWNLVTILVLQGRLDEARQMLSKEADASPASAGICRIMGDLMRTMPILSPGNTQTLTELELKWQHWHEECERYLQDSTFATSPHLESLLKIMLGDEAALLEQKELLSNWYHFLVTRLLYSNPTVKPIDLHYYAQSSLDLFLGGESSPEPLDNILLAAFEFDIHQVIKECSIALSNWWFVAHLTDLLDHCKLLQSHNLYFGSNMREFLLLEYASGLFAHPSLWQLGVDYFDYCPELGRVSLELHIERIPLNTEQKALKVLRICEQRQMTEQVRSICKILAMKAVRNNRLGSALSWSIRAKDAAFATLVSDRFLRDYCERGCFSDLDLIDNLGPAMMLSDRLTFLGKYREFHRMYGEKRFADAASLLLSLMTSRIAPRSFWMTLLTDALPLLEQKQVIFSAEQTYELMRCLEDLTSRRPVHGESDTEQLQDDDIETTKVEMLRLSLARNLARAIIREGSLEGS
Procedure: Interactions between FROUNT and library compounds were analyzed by surface plasmon resonance using a Biacore T100 (GE Healthcare). Full-length FROUNT protein or the FROUNT-binding region of CCR2 was immobilized on the CM5 sensor chip[56]. […] The resonance unit (RU) was measured during the binding and washing periods, and the binding kinetics were analyzed. Solvent correction with DMSO was performed using Biacore T100 evaluation software.

[6] = target: T2, CRBD of FROUNT (a.a. 532-656) bearing the L538E/P612S mutations (Homo sapiens, UniProt Q9BW27, L538E/P612S); test: NMR titration (1H-15N HSQC) of CRBD of FROUNT; type: binding; conditions: 12.5-50 µM compound, 50 µM CRBD
T2 construct: 50 µM CRBD of FROUNT (a.a. 532–656) bearing the L538E/P612S mutations or its mutant (C603S); made in house
T2 sequence (Q9BW27 532-656 L538E/P612S): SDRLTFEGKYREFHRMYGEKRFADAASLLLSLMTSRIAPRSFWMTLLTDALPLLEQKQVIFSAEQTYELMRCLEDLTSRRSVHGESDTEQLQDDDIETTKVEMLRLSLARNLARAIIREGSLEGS
Procedure: All ^1H–^15N heteronuclear single quantum correlation (HSQC) NMR spectra were measured at 25 °C on a Bruker 600-MHz AVANCE III spectrometer with a cryogenic probe. […] The assignments of the backbone ^1H^N and ^15N NMR signals of CRBD were performed, based on the previous paper. […] Combined chemical shift differences Δδ was calculated by Δδ = [(ΔδHN)^2 + (ΔδN/6.5)^2]^1/2, where ΔδHN and ΔδN are the chemical shift differences for ^1H^N and ^15N, respectively.

ALDH = ALDH activity assay (ALDEFLUOR); type: cell-based, human; conditions: THP-1 cells, 33 µM, 30 min
Procedure: THP-1 cells were incubated for 30 min with medium containing DMSO or inhibitors at the concentration of 33 μM then washed and incubated with ALDEFLUOR reagent ([…] Technologies) in assay buffer according to the manufacturer’s instruction. Fluorescence derived from substrate metabolized by cellular ALDH were measured by Gallios cytometer.

FROUNT-CCR2 interaction = target: T3, FROUNT-CCR2 interaction (Homo sapiens, UniProt Q9BW27); test: HTRF FROUNT-CCR2 interaction assay; type: binding; conditions: HTRF
T3 construct: GST-fused FROUNT (FNT-C)
T3 sequence (Q9BW27 500-656 limits assumed): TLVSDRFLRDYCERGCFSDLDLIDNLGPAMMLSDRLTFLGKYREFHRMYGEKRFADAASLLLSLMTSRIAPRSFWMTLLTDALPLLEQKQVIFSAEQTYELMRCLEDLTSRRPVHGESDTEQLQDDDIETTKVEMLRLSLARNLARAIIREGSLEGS

THP-1 cells = test: Chemotaxis inhibition assay (chemoTX chamber, CCL2); type: cell-based, human; conditions: towards CCL2, 90 min
Procedure: Chemotaxis was measured in a 96-well chemoTX chemotaxis chamber with a polycarbonate filter (5-μm pore size) (Neuro probe). Human CCL2 (R&D Systems) was added to the lower chamber of the plate and the cells were added to the upper chamber. After incubation at 37 °C and 5% CO2 for 90 min, the filter was removed and the number of migrated cells in the lower chamber was counted using a cell counting kit F (Dojindo). Data are expressed as migration efficiency (percentage of the maximal migration).

[7] = tested on: monocyte (CD11b+Gr-1-Ly-6C+) chemotaxis to CCL2; test: Flow cytometry-based chemotaxis assay; type: cell-based, mice; conditions: 20 µM wortmannin pre-incubation
Procedure: Bone marrow cells were mechanically flushed from the femurs and tibias of Frount-floxed mice and FROUNT-cKO mice. After incubation in ammonium chloride to lyse red blood cells, nucleated cells were incubated with the following antibodies: PE-conjugated Gr-1 (clone RB6-8C5, dilution 1:400, Cat 553128), Pacific blue-conjugated Ly-6C ([…], dilution 1:400, Cat 128014), and allophycocyanin-conjugated CD11b (clone M1/70, dilution 1:400, Cat 101212). Cells were washed and adjusted to 2 × 10^7 cells mL^−1 in chemotaxis buffer. Cells were pre-incubated with 20 μM wortmannin before the assay as necessary. The chemokines murine CCL2 (Peprotech) were added to the lower chamber and 25 μL of cell suspension was added to the upper chamber of a 5-μm pore-sized chemoTX plate. After incubation at 37 °C under 5% CO2 atmosphere for 90 min, migrated cells were collected and cell populations were determined by surface expression of stained antibody in each population using a Gallios flow cytometer (Beckman coulter). Data are expressed as a migration index (number of migrated cells in the presence of chemoattractant divided by the cell number in the absence of chemokine).

peritoneal macrophages = test: CCL2-induced pseudopodia protrusion of macrophages; type: cell-based, mice; conditions: 25 µM, 1 h pre-incubation
Procedure: Peritoneal macrophages were isolated from mice, seeded in the 8-well glass-based dishes (Life Technologies) and incubated overnight at 37 °C to allow the cells to adhere. After serum starvation for 6 h, cells were stimulated with chemokine at a concentration of 100 ng mL^–1, then fixed with 4% paraformaldehyde (Wako) and permeabilized with 0.1% Triton X-100 (Wako) in PBS, followed by staining with phalloidin conjugated with Alexa Fluor 594 (Life Technologies). […] Tumor macrophages were isolated from collagenase digestion of tumor tissue as attached cells by washing non-adherent cells away and further culturing them in DMEM containing 10 nM M-CSF (BD Biosciences) and 10% serum. After co-culture with LLC tumor cells, confocal images were obtained using an SP5 confocal microscope (Leica Microsystems). Cells were classified as lamellipodial/round-shaped or filopodial based on their morphology and the ratio of each type in the visual field determined.

Structure (SMILES) | viability (B16 tumor cells [1]) | in vitro growth (B16 tumor cells [2]) | in vitro growth (LLC tumor cells [3]) | viability (LLC tumor cells [4]) | other results
O=c1[nH]cc(F)c(=O)[nH]1 [5FU] | affected | affected | affected | affected | –
CCN(CC)C(=S)S [DDC, sodium diethyldithiocarbamate] | – | – | – | – | binding to FROUNT protein [5]: did not bind; chemical shift perturbations in CRBD [6]: no significant perturbation
NC(=O)Nc1sc(-c2ccc(F)cc2)cc1C(N)=O [IKK-IV] | affected | affected | affected | affected | –
N#CN [cyanamide] | – | – | – | – | ALDH inhibition activity (ALDH): more potently than DSF; inhibition of FROUNT-CCR2 interaction (FROUNT-CCR2 interaction): did not block; cellular chemotaxis (THP-1 cells): did not block
COC[C@H]1OC(=O)c2coc3c2[C@@]1(C)C1=C(C3=O)[C@@H]2CCC(=O)[C@@]2(C)C[C@H]1OC(C)=O [wortmannin] | – | – | – | – | migration in response to CCL2 stimulation [7]: inhibited; CCL2-induced pseudopodia protrusion (peritoneal macrophages): inhibition
